Publication PMC6595003, “Insights into real-time chemical processes in a calcium sensor protein-directed dynamic library” (Nature Communications, 2019)
Entries after “also recorded” stand apart in the source; their conditions may differ.

Tests used:
[1] = target: T1, NCS-1/Ric8a interaction (Homo sapiens, UniProt P62166); test: Co-IP binding assay of human NCS-1 and V5-tagged Ric8a in transfected HEK cells; assay type: cell-based; settings: compound 20 μM; for modulation of the NCS-1/Ric8a binding: compared with DMSO (basal binding 100%); for Densitometry of V5-Ric8a co-immunoprecipitated with NCS-1, exp4: DMSO in the same experiment 3222255; for Densitometry of V5-Ric8a co-immunoprecipitated with NCS-1, exp3: DMSO in the same experiment 4613104; for Densitometry of V5-Ric8a co-immunoprecipitated with NCS-1, exp2: DMSO in the same experiment 9508518; for Densitometry of V5-Ric8a co-immunoprecipitated with NCS-1, exp1: DMSO in the same experiment 19247016
T1 construct: expressed in transfected cells; host or cells: HEK293 cells (Dharmacon)
From the text: Mean ± SD from three independent experiments. The curves represent the least squares fitting of the experimental data to a 1:1 stoichiometry. To properly compare the different curves, intensities were normalized and represented. […] Input represents 1/10 cell lysates before IP. Quantifications of each lane from four experiments are shown below the blots. Bars represent percentage of NCS-1/ Ric8a binding (mean ± SD) normalized to DMSO. […] CNS + (green) for Pe > 4.47 × 10^−6 cm s^−1, CNS- (red) for compounds with Pe < 4.47 × 10^–6 cm s^−1. […] Mean ± SD from three independent experiments. […] Then, the percentage of picnotic bodies over the total nuclei was analyzed. Mean ± SD from three independent experiments. Paired two-tailed Student’s test ***P˂0.001; **P < 0.01; *P < 0.05. Source data are provided as a Source Data file. IP immunoprecipitation, WB western blot
Binding assays with NCS-1 and Ric8a in co-transfected HEK cells were carried out to study the modulation effect of compounds 3a, 3b and 3d in the protein-protein interaction (Fig. 6b).
hNCS-1 and V5-tagged hRic8a were co-transfected into HEK293 cells (Dharmacon) using Lipofectamine 2000 (Invitrogen)[13]. After 24 h, after transfection, DMSO alone or the compounds dissolved in DMSO (20 μM) were added to the culture cells. Then, 24 h after transfection, cells were lysed with Lysis buffer (150 mM NaCl, 1.0% Nonidet P-40, 50 mM Tris, pH 8.0) in the presence of the compounds (20 μM), whose concentration was maintained throughout the immunoprecipitation assay. Precleared lysates were incubated overnight (12 h) at 4 °C with mouse anti-NCS-1 (1:500; Cell Signaling). Samples were subsequently incubated overnight with Protein-G-Sepharose (Sigma-Aldrich), washed and eluted from the Sepharose. Samples were analyzed by Western blot following standard procedures. […] Original representative western blots are found in Source Data file.

[2] = target: T2, dNCS-1 (Drosophila melanogaster, UniProt Q9VWX8); test: Tryptophan emission fluorescence of dNCS-1 at increasing ligand concentrations (apparent Kd); assay type: binding; settings: for Kd: Ca2+ loaded dNCS-1 0.8 µM, pH 7.9, 5% DMSO, 5 °C, fit to 1:1 stoichiometry, three independent experiments
T2 construct: made in house; host or cells: E. coli
T2 sequence (Q9VWX8 1-187): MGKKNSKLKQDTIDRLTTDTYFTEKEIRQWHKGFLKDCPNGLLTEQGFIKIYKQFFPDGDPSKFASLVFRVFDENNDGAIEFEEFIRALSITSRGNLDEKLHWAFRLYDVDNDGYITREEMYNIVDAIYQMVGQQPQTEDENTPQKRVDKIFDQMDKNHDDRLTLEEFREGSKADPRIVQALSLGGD
Procedure: Fluorescence-based experiments with 3a–3e were carried out to estimate their affinity to dNCS-1.
Mean ± SD from three independent experiments. The curves represent the least squares fitting of the experimental data to a 1:1 stoichiometry. To properly compare the different curves, intensities were normalized and represented. […] Input represents 1/10 cell lysates before IP. Quantifications of each lane from four experiments are shown below the blots. Bars represent percentage of NCS-1/ Ric8a binding (mean ± SD) normalized to DMSO. […] Mean ± SD from three independent experiments. […] Then, the percentage of picnotic bodies over the total nuclei was analyzed. Mean ± SD from three independent experiments. Paired two-tailed Student’s test ***P˂0.001; **P < 0.01; *P < 0.05. Source data are provided as a Source Data file. IP immunoprecipitation, WB western blot […]
the length of the pass light (L) is 1cm (see Supplementary Table 3 and Supplementary […]
Fluorescence emission experiments. Tryptophan emission fluorescence of dNCS-1 […]
affinity and calculate the apparent dissociation constant, Kd. Fluorescence measurements were performed by Jobin Yvon Floromax4 spectrofluorimeter equipped […]
5% DMSO at 5 °C. The excitation wavelength was fixed at 295 nm, and the emission spectra range were collected over 300-400 nm.
Then, three independent experiments were performed
Fluorescence intensities were normalized and represented as (I0 − I)/I 0. I stands for the observed fluorescence emission at 345 nm (fluorescence maximum), and I0 is the observed fluorescence emission of the protein itself without any small molecule. The apparent dissociation constant was obtained using a least squares algorithm to fit the experimental data to a 1:1 stoichiometry model.6 The fitting was performed with KaleidaGraph Data Analysis Program. […]
Protein expression and purification. Drosophila and human NCS-1 were over-expressed in E. coli and subsequently purified to homogeneity as previously described.9

[3] = Parallel artificial membrane permeability assay (PAMPA-BBB); assay type: in vitro ADME; settings: for Pe (10-6 cm s-1) Experimental 1 / Pe (10-6 cm s-1) Experimental 2 / Pe (10-6 cm s-1) Experimental 3: source data
From the text: The PAMPA methodology is a high-throughput technique to predict passive permeability through biological membranes that employs a brain lipid porcine as membrane. […]
From this equation and following the pattern established in the literature for BBB permeation prediction2 we could classify compounds as CNS + when they present a permeability > 4.50 x 10-6 cm s-1. Source data are provided as a Source Data file. […]
Parallel artificial membrane permeability assays. Prediction of the brain penetration was evaluated using a parallel artificial membrane permeability assay (PAMPA).4 Ten commercial drugs, phosphate buffer saline solution at pH 7.4 (PBS). DMSO and dodecane were purchased from Sigma, Across organics, Aldrich and Fluka. The porcine […]
plate was a 96-well filtrate plate (Multiscreen® IP Sterile Plate PDVF membrane, pore […]
MAIPS4510) and the acceptor plate was an indented 96-well plate (Multiscreen®, catalog no. MAMCS9610) both from Millipore. Filter PDVF […]
membrane units (diameter 30 mm, pore size 0.45 µm) from Symta were used to filter the samples. A 96-well plate UV reader (Thermoscientific, Multiskan spectrum) was used for the UV measurements.

[4] = pig, PAMPA-BBB, pH 7.4, 5% DMSO, 2 h 30 min at 25 °C, mean ± SD, read-out: Pe, in vitro permeability
[5] = PAMPA-BBB, pH 7.4, 5% DMSO, 2 h 30 min at 25 °C, mean ± SD

T1 sequence (P62166 2-190 limits assumed): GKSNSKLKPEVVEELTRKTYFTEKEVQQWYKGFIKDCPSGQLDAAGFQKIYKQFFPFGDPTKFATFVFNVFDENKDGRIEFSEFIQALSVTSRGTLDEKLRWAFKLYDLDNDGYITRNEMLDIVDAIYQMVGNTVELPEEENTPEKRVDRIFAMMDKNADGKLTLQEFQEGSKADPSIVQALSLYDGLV

Row | Densitometry of V5-Ric8a co-immunoprecipitated with NCS-1, exp4 [1] | Densitometry of V5-Ric8a co-immunoprecipitated with NCS-1, exp3 [1] | Densitometry of V5-Ric8a co-immunoprecipitated with NCS-1, exp2 [1] | Densitometry of V5-Ric8a co-immunoprecipitated with NCS-1, exp1 [1] | Kd [2] [µM] | Normalized Fluorescence I0-I/I0 ([2]; ligand 3.2 μM) | Normalized Fluorescence I0-I/I0 ([2]; ligand 6.4 μM) | Normalized Fluorescence I0-I/I0 ([2]; ligand 8 μM) | Normalized Fluorescence I0-I/I0 ([2]; ligand 16 μM) | Normalized Fluorescence I0-I/I0 ([2]; ligand 24 μM) | Normalized Fluorescence I0-I/I0 ([2]; ligand 32 μM) | Normalized Fluorescence I0-I/I0 ([2]; ligand 48 μM) | Normalized Fluorescence I0-I/I0 ([2]; ligand 64 μM) | Normalized Fluorescence I0-I/I0 ([2]; ligand 80 μM) | Normalized Fluorescence I0-I/I0 ([2]; ligand 96 μM) | Pe (10-6 cm s-1) Experimental 1 [3] | Pe (10-6 cm s-1) Experimental 2 [3] | Pe (10-6 cm s-1) Experimental 3 [3] | Pe, in vitro permeability [3, 5] | Structure (SMILES) | modulation of the NCS-1/Ric8a binding [1] | other results
1 | 9362004 | 7268347 | 15828581 | 32007200 | 43 ± 6 | 0.064 | 0.094 | 0.164 | 0.334 | 0.447 | 0.600 | 0.701 | 0.814 | 0.849 | 0.900 | 12.9 10-6 cm s-1 | 12.33 10-6 cm s-1 | 13.52 10-6 cm s-1 |  | O=C(Cc1c[nH]c2ccccc12)NN=Cc1ccc([N+](=O)[O-])c(O)c1 (mixture of isomers) [3b] | strong binding; also recorded: promote the stabilization of the NCS-1/Ric8a interaction | Papp at 2.5 h, 0.04 mg/mL [3, 4]: 12.9 ± 0.8 ×10⁻⁶ cm/s
2 | 1982719 | 1649426 | 4838154 | 13971167 | 32 ± 2 | 0.131 | 0.215 | 0.262 | 0.405 | 0.544 | 0.668 | 0.810 | 0.878 | 0.924 | 0.955 | 1.7 10-6 cm s-1 | 1.25 10-6 cm s-1 | 2.25 10-6 cm s-1 | did not show good permeability values | O=C(N/N=C/c1ccc([N+](=O)[O-])c(O)c1)c1ccco1 [3a] | reduced binding; also recorded: inhibitor similar to CPZ | Prediction (penetration in the CNS) ([3]; Supplementary Table 5): CNS -; Papp at 2.5 h [3, 4]: 1.7 ± 0.7 ×10⁻⁶ cm/s
3 | 6181447 | 9737953 | 13428024 | 25716501 | 61 ± 9 | 0.123 | 0.086 | 0.187 | 0.280 | 0.401 | 0.424 | 0.549 | 0.700 | 0.766 | 0.802 | 2.5 10-6 cm s-1 | 2.04 10-6 cm s-1 | 2.94 10-6 cm s-1 | did not show good permeability values | O=C(NN=Cc1ccc([N+](=O)[O-])c(O)c1)C(O)c1ccccc1 (mixture of isomers) [3d] | strong binding; also recorded: promote the stabilization of the NCS-1/Ric8a interaction | Papp at 2.5 h [3, 4]: 2.5 ± 0.6 ×10⁻⁶ cm/s
